Earlier results in US12409146B2, “Solid lipid nanoparticle for intracellular release of active substances and method for production the same” (LEAD BIOTHERAPEUTICS LTD, priority 2017, dated 2025).
≈ marks a conversion by molar mass, not a printed value.

water solubility: 5.23 µg/mL (≈ 10 µM)
SMILES: C[C@@H]1C[C@H]2[C@@H]3CCC4=CC(=O)C=C[C@]4(C)[C@@]3(Cl)[C@@H](O)C[C@]2(C)[C@@]1(OC(=O)c1ccco1)C(=O)CCl [Mometasone furoate]
